According to patent US8124793B2, “Derivatives of ethylene methanedisulfonate as cancer chemotherapeutic agents” (priority 2007, dated 2012):

Key:
Type in all cases: cell-based
[1] = system: human cancer cells; experiment: NCI screen summary over the cancers tested (negative growth of human cancer cells); settings: cancers with negative growth / cancers tested
Method: (§1) In the NCI screening process, each compound was tested and described by a minimum of 60 data points. The test data include, but are not limited to the type of cancer, the molar concentration used in the screen, and the percent growth of the cancer. In some cases, NMR and elemental analysis were used for structural assignment.
The derivatives in the tables are grouped using the same category as in the tables 1-6.

[2] = system: SF-295; experiment: NCI screen, growth of human tumor cells: CNS Cancer SF-295
Method: as §1

[3] = system: HOP-92; experiment: NCI screen, growth of human tumor cells: Non-Small Cell Lung HOP-92; settings: HOP-92 (Non-Small Cell Lung), 10^−4 molar
Method: as §1

[4] = system: ACHN; experiment: NCI screen, growth of human tumor cells: Renal Cancer ACHN; settings: ACHN (Renal Cancer), 10^−4 molar
Method: as §1

[5] = system: NCI-H460; experiment: NCI screen, growth of human tumor cells: Non-Small Cell Lung NCI-H460; settings: NCI-H460 (Non-Small Cell Lung), 10^−4 molar
Method: as §1

[6] = system: SF-539; experiment: NCI screen, growth of human tumor cells: CNS Cancer SF-539; settings: SF-539 (CNS Cancer), 10^−4 molar
Method: as §1

[7] = system: K562; experiment: NCI screen, growth of human tumor cells: Leukemia K562
Method: as §1

[8] = system: SR; experiment: NCI screen, growth of human tumor cells: Leukemia SR; settings: for % Growth: SR
Method: as §1

[9] = system: CCRF-CEM; experiment: NCI screen, growth of human tumor cells: Leukemia CCRF-CEM; settings: CCRF-CEM
Method: as §1

[10] = system: MOLT-4; experiment: NCI screen, growth of human tumor cells: Leukemia MOLT-4
Method: as §1

[11] = system: SK-MEL-2; experiment: NCI screen, growth of human tumor cells: Melanoma SK-MEL-2; settings: SK-MEL-2 (Melanoma), 10^−4 molar
Method: as §1

[12] = system: RXF-393; experiment: NCI screen, growth of human tumor cells: Renal Cancer RXF-393; settings: RXF-393 (Renal Cancer), 10^−4 molar
Method: as §1

[13] = system: OVCAR-3; experiment: NCI screen, growth of human tumor cells: Ovarian Cancer OVCAR-3; settings: OVCAR-3 (Ovarian Cancer), 10^−4 molar
Method: as §1

[14] = system: KM12; experiment: NCI screen, growth of human tumor cells: Colon Cancer KM12
Method: as §1

[15] = system: HOP-62; experiment: NCI screen, growth of human tumor cells: Non-Small Cell Lung HOP-62; settings: HOP-62 (Non-Small Cell Lung), 10^−4 molar
Method: as §1

## O=C(c1ccc2ccccc2c1)C1(I)S(=O)(=O)OCCOS1(=O)=O [NSC 679046]
[1]; 10^−4 M conc.
  Percentage of cancers showing negative growth cancers tested: 100%
[1]; 10^−5 M conc.
  Percentage of cancers showing negative growth cancers tested: 100%
[1]; 10^−6 M conc.
  Percentage of cancers showing negative growth cancers tested: 100%
[1]; 10^−7 M conc.
  Percentage of cancers showing negative growth cancers tested: 100%
[1]; 10^−8 M conc.
  Percentage of cancers showing negative growth cancers tested: 0%
[2]; SF-295, 10^−4 molar
  % Growth: −52%
[2]; SF-295, 10^−5 molar
  % Growth: −58%
[2]; SF-295, 10^−6 molar
  % Growth: −65%
[2]; SF-295, 10^−7 molar
  % Growth: −56%
[2]; SF-295, 10^−8 molar
  % Growth: 51%

## CSC(=NC(=O)c1cn([C@H]2O[C@H](COC(C)=O)[C@H]3OC(C)(C)O[C@H]32)c2ccccc12)SC [NSC 732264]
[3]
  percent of growth of human tumor cells: 22%

## ethylene (2-methyl-2-acetyl)-ethylene-1,1-disulfonate [NSC 698121]
[4]
  percent of growth of human tumor cells: 29%
[5]
  percent of growth of human tumor cells: 12%
[1]; 10^−4 M conc.
  Percentage of cancers showing negative growth cancers tested: 10^−4 M conc. = 1/8 = 0%
[6]
  percent of growth of human tumor cells: 18%
[7]; K562, 10^−4 molar
  % Growth: 54%
[7]; K562, 10^−5 molar
  % Growth: 59%
[7]; K562, 10^−6 molar
  % Growth: 54%
[7]; K562, 10^−7 molar
  % Growth: 52%
[8]; 10^−4 molar
  % Growth: 60%
[8]; 10^−5 molar
  % Growth: 31%
[2]; SF-295 (CNS Cancer), 10^−4 molar
  percent of growth of human tumor cells: 24%
[9]; 10^−4 molar
  % Growth: 18%
[9]; 10^−5 molar
  % Growth: 51%
[9]; 10^−6 molar
  % Growth: 61%
[9]; 10^−7 molar
  % Growth: 68%
[10]; MOLT-4, 10^−4 molar
  % Growth: (85) %
[10]; MOLT-4, 10^−5 molar
  % Growth: 46%

## CN(C)C(=N)N=C(N)N.CS(C)=O.[Cl][Pt][Cl] [NSC 671543]
[11]
  percent of growth of human tumor cells: 30%

## C[Si](C)(OCCS(=O)(=O)O)OC(=C1S(=O)(=O)OCCOS1(=O)=O)c1cccc2ccccc12.[Na+] [NSC 679049]
[12]
  percent of growth of human tumor cells: 23%
[13]
  percent of growth of human tumor cells: 22%

## C[Si](C)(OCCS(=O)(=O)[O-])C(=C1S(=O)(=O)OCCOS1(=O)=O)c1cccc2ccccc12.[Na+] [MWC 95-8]
[1]; 10^−4 M conc.
  Percentage of cancers showing negative growth cancers tested: 10^−4 M conc. = 0/1 = 0%

## CCCCCCCCOCC1S(=O)(=O)OCCOS1(=O)=O [NSC 671535]
[1]; 10^−4 M conc.
  Percentage of cancers showing negative growth cancers tested: 10^−4 M conc. = 0/1 = 0%
[8]; SR (Leukemia), 10^−4 molar
  percent of growth of human tumor cells: 5%

## O=C(O)c1ccccc1C(=O)NCC1S(=O)(=O)OCCOS1(=O)=O [NSC 671537, ethylene (2-carboxy-benzoyl)-N-2-ethane-1,1-disulfonate]
[14]; KM12, 10^−4 molar
  % Growth: 62%
[14]; KM12, 10^−5 molar
  % Growth: 54%
[14]; KM12, 10^−6 molar
  % Growth: 45%
[14]; KM12, 10^−7 molar
  % Growth: 61%
[14]; KM12, 10^−8 molar
  % Growth: 41%
[1]; 10^−4 M conc.
  Percentage of cancers showing negative growth cancers tested: 10^−4 M conc. = 0/1 = 0%

## COC(=O)/C=C(\C(=O)OC)C1C(=O)Oc2c(C)c(=O)c3ccccc3n21 (centres unmarked) [NSC 670993]
[15]
  percent of growth of human tumor cells: −53%
